# Test results as given in US9758508B2, “2,3-dihydro-isoindole-1-on derivative as BTK kinase suppressant, and pharmaceutical composition including same” (CRYSTALGENOMICS, INC., priority 2012, dated 2017).
# Target: BTK (Homo sapiens (Human), UniProt Q06187)
# Assay: Assay for BTK inhibition activity (ELISA method)
# Assay type: biochemical
# Details: 0.4 nM BTK enzyme, 50 μM ATP, 20 minutes at 30° C.
# Procedure: In order to evaluate the activity of the compounds of the present invention as a BTK inhibitor, commercially available BTK (Promega) was used for this experiment. Specifically, an enzymatic reaction was conducted by mixing 0.4 nM of BTK enzyme, 40 μM of biotin-S1 substrate peptide and 50 μM of ATP in a reaction buffer (15 mM Tris-HCl (pH 7.5), 20 mM MgCl2, 2 mM MnCl2, 2 mM DTT, 0.1 mg/ml BSA). The mixture was treated with the test compounds at predetermined concentrations and allowed to react for 20 minutes at 30° C. Upon completion of the reaction, the activities of the test compounds were measured by ELISA method. The absorbance value of an untreated sample was used as a control (100% control). BTK enzyme activities were measured after treatment with various concentrations of the test compounds, and the concentration of test compounds resulting in 50% inhibition of BTK enzyme as compared to the control was determined as IC50 of BTK inhibitor.
# BTK, sequence (Q06187 whole entry): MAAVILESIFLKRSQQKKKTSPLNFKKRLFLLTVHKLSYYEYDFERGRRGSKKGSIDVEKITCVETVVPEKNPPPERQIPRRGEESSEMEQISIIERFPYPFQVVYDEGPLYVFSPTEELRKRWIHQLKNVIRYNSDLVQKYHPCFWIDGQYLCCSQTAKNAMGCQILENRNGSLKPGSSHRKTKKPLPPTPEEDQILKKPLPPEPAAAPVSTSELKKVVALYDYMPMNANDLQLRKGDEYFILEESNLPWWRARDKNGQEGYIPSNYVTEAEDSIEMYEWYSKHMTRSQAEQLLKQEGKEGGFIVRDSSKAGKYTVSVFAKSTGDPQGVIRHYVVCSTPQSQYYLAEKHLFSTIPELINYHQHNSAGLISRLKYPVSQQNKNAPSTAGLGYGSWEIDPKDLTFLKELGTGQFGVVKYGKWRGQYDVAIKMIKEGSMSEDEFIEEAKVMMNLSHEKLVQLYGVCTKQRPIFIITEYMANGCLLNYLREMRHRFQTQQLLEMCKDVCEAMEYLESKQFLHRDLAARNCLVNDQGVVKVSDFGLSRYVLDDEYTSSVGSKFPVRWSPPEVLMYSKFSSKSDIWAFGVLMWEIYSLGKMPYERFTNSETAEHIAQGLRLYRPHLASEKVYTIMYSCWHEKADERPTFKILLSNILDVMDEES
row,Structure (SMILES),IC50
1,"Cc1cnc(-c2ccc(-c3ccc(NC(=O)Nc4c(F)c(F)cc(F)c4F)cc3F)c3c2C(=O)NC3)[nH]1 [Compound 20, 1-{3-fluoro-4-[7-(5-methyl-1H-imidazol-2-yl)-1-oxo-2,3-dihydro-1H-isoindol-4-yl]-phenyl}-3-(2,3,5,6-tetrafluoro-phenyl)-urea]",0.9 nM
2,"Cc1cnc(-c2ccc(-c3ccc(NC(=O)Nc4ccc(F)c(F)c4)cc3F)c3c2C(=O)NC3)[nH]1 [Compound 14, 1-(3,4-difluoro-phenyl)-3-{3-fluoro-4-[7-(5-methyl-1H-imidazol-2-yl)-1-oxo-2,3-dihydro-1H-isoindol-4-yl]-phenyl}-urea]",5.6 nM
3,"Cc1cnc(-c2ccc(-c3ccc(NC(=O)Nc4c(F)ccc(F)c4F)cc3F)c3c2C(=O)NC3)[nH]1 [Compound 12, 1-{3-fluoro-4-[7-(5-methyl-1H-imidazol-2-yl)-1-oxo-2,3-dihydro-1H-isoindol-4-yl]-phenyl}-3-(2,3,6-trifluoro-phenyl)-urea]",0.28 nM
4,"Cc1cnc(-c2ccc(-c3ccc(NC(=O)Nc4c(F)cc(Cl)cc4F)cc3F)c3c2C(=O)NC3)[nH]1 [Compound 19, 1-(4-chloro-2,6-difluoro-phenyl)-3-{3-fluoro-4-[7-(5-methyl-1H-imidazol-2-yl)-1-oxo-2,3-dihydro-1H-isoindol-4-yl]-phenyl}-urea]",4 nM
5,"Cc1cnc(-c2ccc(-c3ccc(NC(=O)Nc4c(F)ccc(F)c4Cl)cc3F)c3c2C(=O)NC3)[nH]1 [Compound 18, 1-(2-chloro-3,6-difluorophenyl)-3-(3-fluoro-4-(7-(5-methyl-1H-imidazol-2-yl)-1-oxoisoindolin-4-yl)phenyl)urea]",0.07 nM
6,"Cc1cnc(-c2ccc(-c3ccc(NC(=O)Nc4c(F)cc(F)cc4F)cc3F)c3c2C(=O)NC3)[nH]1 [Compound 7, 1-{3-fluoro-4-[7-(5-methyl-1H-imidazol-2-yl)-1-oxo-2,3-dihydro-1H-isoindol-4-yl]-phenyl}-3-(2,4,6-trifluoro-phenyl)-urea]",0.1 nM
7,"Cc1cnc(-c2ccc(-c3ccc(NC(=O)Nc4c(F)ccc(Cl)c4F)cc3F)c3c2C(=O)NC3)[nH]1 [Compound 17, 1-(3-chloro-2,6-difluorophenyl)-3-(3-fluoro-4-(7-(5-methyl-1H-imidazol-2-yl)-1-oxoisoindolin-4-yl)phenyl)urea]",0.05 nM
8,"Cc1cnc(-c2ccc(-c3ccc(NC(=O)Nc4c(F)c(F)c(F)c(F)c4F)cc3F)c3c2C(=O)NC3)[nH]1 [Compound 9, 1-{3-fluoro-4-[7-(5-methyl-1H-imidazol-2-yl)-1-oxo-2,3-dihydro-1H-isoindol-4-yl]-phenyl}-3-pentafluorophenyl-urea]",0.4 nM
9,"Cc1cnc(-c2ccc(-c3ccc(NC(=O)Nc4c(F)cccc4Cl)cc3F)c3c2C(=O)NC3)[nH]1 [Compound 4, 1-(2-chloro-6-fluoro-phenyl)-3-{3-fluoro-4-[7-(5-methyl-1H-imidazol-2-yl)-1-oxo-2,3-dihydro-1H-isoindol-4-yl]-phenyl}-urea]",0.9 nM
10,"Cc1cnc(-c2ccc(-c3ccc(NC(=O)Nc4ccc(C#N)c(F)c4)cc3F)c3c2C(=O)NC3)[nH]1 [Compound 15, 1-(4-cyano-3-fluorophenyl)-3-(3-fluoro-4-(7-(5-methyl-1H-imidazol-2-yl)-1-oxoisoindolin-4-yl)phenyl)urea]",5 nM
11,"Cc1cnc(-c2ccc(-c3ccc(NC(=O)Nc4c(F)cccc4F)cc3F)c3c2C(=O)NC3)[nH]1 [Compound 3, 1-(2,6-difluoro-phenyl)-3-{3-fluoro-4-[7-(5-methyl-1H-imidazol-2-yl)-1-oxo-2,3-dihydro-1H-isoindol-4-yl]-phenyl}-urea]",1 nM
